Legend:
TRPV4 = molecular target: T1, TRPV4 (Mus musculus, UniProt Q9EPK8); test: Calcium influx in Fluo-4 loaded normal and tumor endothelial cells in response to TRPV4 activator; type: cell-based; conditions: Fluo-4 loaded cells
T1 construct: normal EC that were isolated from the dermis (MDEC cells) of TRAMP mice were used instead; endogenous in cells; host or cells: tumor endothelial cells (TEC) from TRAMP mouse prostate adenocarcinoma; normal EC (MDEC) from TRAMP mouse dermis
Source text: Cell Culture. Tumor endothelial cells (EC) cells were isolated from transgenic TRAMP mice bearing prostate adenocarcinoma. Because it is difficult to obtain sufficient quantities of EC cells from the normal mouse prostate (due to its small size), normal EC that were isolated from the dermis (MDEC cells) of TRAMP mice were used instead. Normal EC cells from human dermis (HDEC cells; Cambrex) and an established mouse pancreatic EC cell line (MS1-EC cells; gift of Judah Folkman) served as independent non-tumor EC cell controls. […]
(§1) EC cells adherent to the flexible substrates were loaded with Fluo-4/AM (1 μM) for 30 min, washed 3 times in calcium medium (136 mM NaCl, 4.7 mM KCl, 1.2 mM MgSO4, 1.1 mM CaCl2, 1.2 mM KH2PO4, 5 mM NaHCO3, 5.5 mM glucose, and 20 mM Hepes. pH 7.4) and then exposed to mechanical strain (15% elongation) for 3-4 sec using a Stage Flexer (FLEXCELL® International) apparatus that is fixed on a Nikon upright microscope equipped with CCD camera (Spot-RT slider, Diagnostics Corp, USA). Images were acquired for every 4 seconds and analyzed using IP lab software and Microsoft Excel as described in Matthews, et al. (2006) (J. Cell Sci., 119:508-518).
To confirm whether this difference in TRPV4 expression affects TRPV4 function in these cells, the inventors measured calcium influx in Fluo-4 loaded cells in response to specific TRPV4 activator 4-α-PDD.

human TRPV4 = molecular target: T2, human TRPV4 (Homo sapiens, UniProt Q9HBA0); test: Calcium influx in TEC transfected with human TRPV4-EGFP construct; type: cell-based
T2 construct: expressed in transfected cells; host or cells: mouse tumor endothelial cells (TEC) from TRAMP mice, Amaxa nucleofection
T2 sequence (Q9HBA0 whole entry): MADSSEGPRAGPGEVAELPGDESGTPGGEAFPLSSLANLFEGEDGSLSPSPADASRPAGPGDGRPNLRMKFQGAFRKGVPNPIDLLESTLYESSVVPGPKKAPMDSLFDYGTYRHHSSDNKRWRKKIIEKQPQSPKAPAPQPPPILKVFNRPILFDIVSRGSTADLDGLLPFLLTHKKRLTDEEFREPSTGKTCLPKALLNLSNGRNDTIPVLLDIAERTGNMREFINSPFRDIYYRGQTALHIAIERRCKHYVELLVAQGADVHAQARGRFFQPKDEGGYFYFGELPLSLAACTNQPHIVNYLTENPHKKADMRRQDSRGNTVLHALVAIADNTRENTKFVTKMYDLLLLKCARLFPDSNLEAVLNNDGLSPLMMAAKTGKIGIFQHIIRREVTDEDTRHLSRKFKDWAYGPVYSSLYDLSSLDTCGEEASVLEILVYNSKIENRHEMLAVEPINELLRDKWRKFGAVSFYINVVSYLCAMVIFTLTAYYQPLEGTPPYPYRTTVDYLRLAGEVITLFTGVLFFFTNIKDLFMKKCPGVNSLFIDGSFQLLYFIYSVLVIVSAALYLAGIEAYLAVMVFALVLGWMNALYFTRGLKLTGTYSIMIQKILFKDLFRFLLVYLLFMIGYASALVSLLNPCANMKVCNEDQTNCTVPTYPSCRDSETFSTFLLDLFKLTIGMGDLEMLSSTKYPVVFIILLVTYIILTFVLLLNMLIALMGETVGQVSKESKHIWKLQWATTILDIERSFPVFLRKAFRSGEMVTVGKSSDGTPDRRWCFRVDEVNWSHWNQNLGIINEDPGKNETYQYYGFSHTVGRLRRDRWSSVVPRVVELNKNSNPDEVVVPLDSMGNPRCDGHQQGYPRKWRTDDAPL
Method: as §1
Next, the inventors transfected TEC with a human TRPV4-EGFP construct and checked its ability to rescue aberrant mechanosensation of tumor EC. […] TRPV4 activator, 4-α-PDD induced almost 8 fold increase in calcium in these cells compared to EGFP alone-transfected TEC (FIG. 2A). The inventors then cultured these TRPV4-overexpressing cells on transglutamase linked gelatin gels of various stiffness (98 to 2,280 Pa) for 6 h and compared their cell spreading over time with that of EGFP-transfected TEC (control). As expected and shown in FIGS. 2B and 2C, TEC cells transfected with only EGFP attached, spread and increases their degree of spreading with the increasing gel stiffness. […]

T1 sequence (Q9EPK8 whole entry): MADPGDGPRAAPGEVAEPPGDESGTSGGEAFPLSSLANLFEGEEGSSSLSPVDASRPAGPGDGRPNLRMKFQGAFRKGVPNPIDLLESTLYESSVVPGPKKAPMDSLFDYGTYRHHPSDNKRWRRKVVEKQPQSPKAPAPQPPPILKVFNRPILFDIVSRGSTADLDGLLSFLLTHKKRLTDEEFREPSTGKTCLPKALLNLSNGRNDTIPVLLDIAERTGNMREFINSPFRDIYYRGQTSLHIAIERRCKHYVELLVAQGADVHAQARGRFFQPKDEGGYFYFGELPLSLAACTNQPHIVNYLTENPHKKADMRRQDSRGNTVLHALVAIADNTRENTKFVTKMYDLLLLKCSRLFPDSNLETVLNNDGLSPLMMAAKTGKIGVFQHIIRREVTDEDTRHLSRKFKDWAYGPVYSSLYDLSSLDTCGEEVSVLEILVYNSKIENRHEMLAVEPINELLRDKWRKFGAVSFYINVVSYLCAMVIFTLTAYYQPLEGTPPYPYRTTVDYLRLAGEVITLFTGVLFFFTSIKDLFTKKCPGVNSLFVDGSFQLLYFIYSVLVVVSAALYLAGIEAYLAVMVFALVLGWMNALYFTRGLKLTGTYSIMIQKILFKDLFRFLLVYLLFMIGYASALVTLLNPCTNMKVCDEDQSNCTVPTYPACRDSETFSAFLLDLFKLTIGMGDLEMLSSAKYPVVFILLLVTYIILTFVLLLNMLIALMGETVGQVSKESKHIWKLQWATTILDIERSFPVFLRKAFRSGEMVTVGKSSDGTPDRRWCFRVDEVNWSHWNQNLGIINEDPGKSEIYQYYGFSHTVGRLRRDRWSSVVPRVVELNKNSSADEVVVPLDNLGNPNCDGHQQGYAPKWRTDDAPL

CCCCCCCCCC(=O)O[C@@H]1[C@@H](C)[C@@]2(O)[C@@H](C=C(CO)C[C@@]3(O)C(=O)C(C)=C[C@@H]23)[C@@H]2C(C)(C)[C@]12OC(=O)CCCCCCCCC [4-α-PDD, 4-α-phorbol 12,13-didecanoate]
calcium influx induced in nEC (TRPV4; normal EC (nEC)): rapid robust calcium influx
reduction of induced calcium influx in tumor EC compared with nEC (TRPV4; tumor EC vs nEC): ~40%
increase in calcium compared to EGFP alone-transfected TEC (human TRPV4): ~8 fold
